In paper PMC7756341, “Liposomal FRET Assay Identifies Potent Drug‐Like Inhibitors of the Ceramide Transport Protein (CERT)” (Chemistry (Weinheim an Der Bergstrasse, Germany), 2020):
Where “and” joins values, the source holds several entries; their conditions need not be identical. Equal entries are not always repeated.

Columns and labels:
HeLa cells [1] = assay: Cellular localization of BODIPY-ceramide by confocal microscopy; assay type: cell-based; details: 10 µM inhibitor, 2 h
HeLa cells [2] = assay: Sphingolipid content of treated HeLa cells by quantitative mass spectrometry; assay type: cell-based; details: for Cer16 / Cer18 / Cer20 / Cer22 / Cer24 / Cer24:1 / Cer total / S1P / SM16 / SM18 / SM20 / SM22 / SM24 / SM24:1 / SM total / Sph / ratio total SM/Cer: HeLa, 42h, single replicates; for Cer16 / Cer18 / Cer20 / Cer22 / Cer24 / Cer24:1 / Cer total / S1P / SM16 / SM18 / SM20 / SM22 / SM24 / SM24:1 / SM total / Sph: 500.000 cells per sample
Method in brief: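 HeLa cells were plated in six-well plates at 177000 cells per well in DMEM containing 4mM L-glutamine, 10% FBS and 1% Penicillin-Streptomycin, then exposed to inhibitor. Harvested cells were adjusted to 500.000 per sample, extracted with methanol/chloroform (2:1) containing Cer17 and d31-SM16 internal standards, and quantified for ceramides and sphingomyelins by C8 reversed-phase HPLC coupled to ESI+ triple-quadrupole MS/MS.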

`Cc1cc(C2=NOC(c3cc(Cl)cc(Cl)c3)(C(F)(F)F)C2)ccc1C(=O)NCC(=O)NCC(F)(F)F` (centres unmarked) [20D5, Fluralaner] was tested, and the “effect on intracellular distribution of BODIPY-Cer” value (HeLa cells [1]) was “significantly influenced”, the “effect on total sphingomyelin” value (HeLa cells [2]; HeLa cells, 48 hours, serum-reduced medium) was “dose‐dependent reduction” and the Cer16 (HeLa cells [2]; 1 µM) was 45,48 pmol/sample and 40,19 pmol/sample and 39,73 pmol/sample. For the same compound, the Cer18 (HeLa cells [2]; 1 µM) was 6,03 pmol/sample and 4,12 pmol/sample and 3,84 pmol/sample, the Cer20 (HeLa cells [2]; 1 µM) was 2,67 pmol/sample and 1,37 pmol/sample and 1,12 pmol/sample and the Cer22 (HeLa cells [2]; 1 µM) was 11,46 pmol/sample and 9,24 pmol/sample and 9,12 pmol/sample. For the same compound, the Cer24 (HeLa cells [2]; 1 µM) was 40,67 pmol/sample and 36,50 pmol/sample and 37,27 pmol/sample, the “Cer24:1” value (HeLa cells [2]; 1 µM) was 46,05 pmol/sample and 40,74 pmol/sample and 40,44 pmol/sample and the Cer total (HeLa cells [2]; 1 µM) was 152,37 pmol/sample and 131,71 pmol/sample and 131,97 pmol/sample. The S1P (HeLa cells [2]; 1 µM) was 1,21 pmol/sample and 1,34 pmol/sample and 1,10 pmol/sample, the SM16 (HeLa cells [2]; 1 µM) was 1625,68 pmol/sample and 1717,57 pmol/sample and 1686,01 pmol/sample and the SM18 (HeLa cells [2]; 1 µM) was 54,98 pmol/sample and 59,04 pmol/sample and 56,68 pmol/sample. For the same compound, the SM20 (HeLa cells [2]; 1 µM) was 18,10 pmol/sample and 18,45 pmol/sample and 17,14 pmol/sample, the SM22 (HeLa cells [2]; 1 µM) was 110,98 pmol/sample and 111,56 pmol/sample and 111,04 pmol/sample and the SM24 (HeLa cells [2]; 1 µM) was 197,09 pmol/sample and 206,21 pmol/sample and 199,98 pmol/sample. For the same compound, the “SM24:1” value (HeLa cells [2]; 1 µM) was 621,75 pmol/sample and 662,66 pmol/sample and 645,68 pmol/sample, the SM total (HeLa cells [2]; 1 µM) was 2628,58 pmol/sample and 2775,49 pmol/sample and 2716,53 pmol/sample and the Sph (HeLa cells [2]; 1 µM) was 3,74 pmol/sample and 3,07 pmol/sample and 3,46 pmol/sample. The “ratio total SM/Cer” value (HeLa cells [2]; 1 µM) was 19,9 and 18,2 and 20,6, the Cer16 (HeLa cells [2]; 2.5 µM) was 40,44 pmol/sample and 43,49 pmol/sample and 36,97 pmol/sample and the Cer18 (HeLa cells [2]; 2.5 µM) was 4,61 pmol/sample and 4,98 pmol/sample and 3,95 pmol/sample. For the same compound, the Cer20 (HeLa cells [2]; 2.5 µM) was 1,33 pmol/sample and 1,40 pmol/sample and 1,09 pmol/sample, the Cer22 (HeLa cells [2]; 2.5 µM) was 9,74 pmol/sample and 10,99 pmol/sample and 8,69 pmol/sample and the Cer24 (HeLa cells [2]; 2.5 µM) was 35,83 pmol/sample and 40,22 pmol/sample and 34,92 pmol/sample. For the same compound, the “Cer24:1” value (HeLa cells [2]; 2.5 µM) was 37,47 pmol/sample and 43,87 pmol/sample and 37,54 pmol/sample, the Cer total (HeLa cells [2]; 2.5 µM) was 129,42 pmol/sample and 144,94 pmol/sample and 123,16 pmol/sample and the S1P (HeLa cells [2]; 2.5 µM) was 1,21 pmol/sample and 1,29 pmol/sample (2×). The SM16 (HeLa cells [2]; 2.5 µM) was 1311,55 pmol/sample and 1447,18 pmol/sample and 1450,27 pmol/sample, the SM18 (HeLa cells [2]; 2.5 µM) was 48,19 pmol/sample and 50,02 pmol/sample and 51,79 pmol/sample and the SM20 (HeLa cells [2]; 2.5 µM) was 16,11 pmol/sample and 17,46 pmol/sample and 16,39 pmol/sample. For the same compound, the SM22 (HeLa cells [2]; 2.5 µM) was 98,76 pmol/sample and 109,23 pmol/sample and 102,97 pmol/sample, the SM24 (HeLa cells [2]; 2.5 µM) was 179,29 pmol/sample and 202,61 pmol/sample and 193,22 pmol/sample and the “SM24:1” value (HeLa cells [2]; 2.5 µM) was 587,13 pmol/sample and 553,18 pmol/sample and 603,33 pmol/sample. The SM total (HeLa cells [2]; 2.5 µM) was 2401,78 pmol/sample and 2207,08 pmol/sample and 2429,82 pmol/sample, the Sph (HeLa cells [2]; 2.5 µM) was 3,04 pmol/sample and 3,17 pmol/sample and 2,91 pmol/sample and the “ratio total SM/Cer” value (HeLa cells [2]; 2.5 µM) was 19,5 and 17,1 and 16,8. The Cer16 (HeLa cells [2]; 5 µM) was 48,26 pmol/sample and 50,29 pmol/sample and 47,46 pmol/sample, the Cer18 (HeLa cells [2]; 5 µM) was 5,41 pmol/sample and 5,92 pmol/sample and 5,34 pmol/sample and the Cer20 (HeLa cells [2]; 5 µM) was 1,35 pmol/sample and 1,41 pmol/sample and 1,29 pmol/sample. For the same compound, the Cer22 (HeLa cells [2]; 5 µM) was 9,51 pmol/sample and 10,83 pmol/sample and 9,59 pmol/sample, the Cer24 (HeLa cells [2]; 5 µM) was 33,23 pmol/sample and 39,15 pmol/sample and 38,78 pmol/sample and the “Cer24:1” value (HeLa cells [2]; 5 µM) was 35,26 pmol/sample and 38,24 pmol/sample and 35,25 pmol/sample. For the same compound, the Cer total (HeLa cells [2]; 5 µM) was 133,01 pmol/sample and 145,85 pmol/sample and 137,71 pmol/sample, the S1P (HeLa cells [2]; 5 µM) was 1,32 pmol/sample and 1,22 pmol/sample and 1,19 pmol/sample and the SM16 (HeLa cells [2]; 5 µM) was 1128,33 pmol/sample and 1262,96 pmol/sample and 1233,63 pmol/sample. For the same compound, the SM18 (HeLa cells [2]; 5 µM) was 43,19 pmol/sample and 47,39 pmol/sample and 44,90 pmol/sample, the SM20 (HeLa cells [2]; 5 µM) was 13,45 pmol/sample and 15,19 pmol/sample and 13,75 pmol/sample and the SM22 (HeLa cells [2]; 5 µM) was 74,74 pmol/sample and 85,38 pmol/sample and 82,05 pmol/sample. The SM24 (HeLa cells [2]; 5 µM) was 132,70 pmol/sample and 158,23 pmol/sample and 155,99 pmol/sample, the “SM24:1” value (HeLa cells [2]; 5 µM) was 419,73 pmol/sample and 481,61 pmol/sample and 461,72 pmol/sample and the SM total (HeLa cells [2]; 5 µM) was 1812,15 pmol/sample and 2050,77 pmol/sample and 1992,04 pmol/sample. The Sph (HeLa cells [2]; 5 µM) was 3,25 pmol/sample and 3,29 pmol/sample and 4,27 pmol/sample and the “ratio total SM/Cer” value (HeLa cells [2]; 5 µM) was 13,6 and 14,1 and 14,5.
